# Experimental data: US3946000A, “7-[α-(2-Aminomethyl-1-cyclohexenyl)-acetamido]-3-heterocyclic thiomethyl-3-cephem-4-carboxylic acids” (Bristol-Myers Company, priority 1973, dated 1976)
# “And” between values parts separate entries of the source, which are not always exact repeats. Equal values may be shown once. Read-outs that look alike come from different tables or passages of the source.
# Key:
# [1] = Solubility in 0.1 M pH 7.0 phosphate buffer (bioassay and UV-assay); type: physicochemical; details: for solubility at 4 h: 0.1 m phosphate buffer, pH 7, aqueous buffer
# Description: *Stirred at 25° C. for 4 hours in 0.1 M pH 7.0 phosphate
# buffer--filtered through Milipore filter (0.45 μ)--assayed
# spectroscopically against its own standard.
# The test solution and the standard solution are prepared as described below.
# About 10 mg. (1) of a sample is placed in a vial and mixed with 1 ml. of 0.1 M phosphate buffer (pH 7.0). The vial is stoppered, sealed with a metal cap, placed on a rotary shaker and agitated at 160 rpm for 4 hr. at 25° C. The solution is filtered through a Millipore filter (HAWP 01300, mean pore size 0.45 μm). The filtrate is diluted to use for bioassay and UV assay as follows:
# About 2 mg. of the same sample is weighed precisely and dissolved in 4 ml. of 1% K2 CO3 solution^(3) (usually within one minute). The solution is diluted exactly to 50 ml. in a flask with 0.1 M pH 7.0 phosphate buffer and used for the preparation of the standard solutions for bioassay and UV-assay as follows:
# (1) A 20 mg. or more sample is used when the sample is expected to be more soluble.
# (2) 0.1 M pH 7.0 phosphate buffer is used as a diluent in the present test and also as a reference solution in UV-assay.
# (3) It was previously confirmed that almost the same result is obtained when the sample is solubilized in DMSO (dimethylsulfoxide) and then diluted similarily with the buffer.
# (4) Volume of the solution is measured precisely with an appropriate pipette or flask.
# BA: Bioassay, UV: UV-assay Results given for the same compound on different lines were obtained using samples from different lots.
# S. aureus Smith A9537 = experiment: M.I.C. by Tube Dilution, S. aureus Smith A9537; type: cell-based; details: Staphylococcus aureus, 10^-4 dilution, overnight at 37° C.
# S. aureus Russel = experiment: M.I.C. by Tube Dilution, S. aureus Russel; type: cell-based; details: Staphylococcus aureus, Nutrient Broth, overnight at 37° C.
# S. aureus BX1633 A9606 = experiment: M.I.C. by Tube Dilution, S. aureus BX1633 A9606; type: cell-based; details: Staphylococcus aureus, BX1633A9606, S. aureus BX1633 A9606; Nutrient Broth, overnight at 37° C.
# Str. pyogenes A9604 = experiment: M.I.C. by Tube Dilution, Str. pyogenes A9604; type: cell-based; details: Streptococcus pyogenes; Str. pyogenes A9604 + 5% serum; 50% Nutrient Broth - 45% Antibiotic Assay Broth; overnight at 37° C.
# D. pneumoniae A9585 = experiment: M.I.C. by Tube Dilution, D. pneumoniae A9585; type: cell-based; details: Streptococcus pneumoniae, A9585, D. pneumoniae A9585 + 5% serum; 50% Nutrient Broth - 45% Antibiotic Assay Broth; overnight at 37° C.
# Mycobacterium 607 = experiment: M.I.C. by Tube Dilution, Mycobacterium 607; type: cell-based; details: overnight at 37° C.
# E. coli NIHJ = experiment: M.I.C. by Tube Dilution, E. coli NIHJ; type: cell-based; details: Escherichia coli, overnight at 37° C.
# E. coli ATCC 8739 = experiment: M.I.C. by Tube Dilution, E. coli ATCC 8739; type: cell-based; details: Escherichia coli, ATCC8739, overnight at 37° C.
# E. coli Juhl A15119 = experiment: M.I.C. by Tube Dilution, E. coli Juhl A15119; type: cell-based; details: Escherichia coli, JUHLA15119, 10^-4 dilution, overnight at 37° C.
# K. pneumoniae A9977 = experiment: M.I.C. by Tube Dilution, K. pneumoniae A9977; type: cell-based; details: Klebsiella pneumoniae, 10^-4 dilution, overnight at 37° C.
# K. pneumoniae A15130 = experiment: M.I.C. by Tube Dilution, K. pneumoniae A15130; type: cell-based; details: Klebsiella pneumoniae, 10^-4 dilution, overnight at 37° C.
# Pr. mirabilis A9900 = experiment: M.I.C. by Tube Dilution, Pr. mirabilis A9900; type: cell-based; details: Proteus mirabilis, 10^-4 dilution, overnight at 37° C.
# Pr. morganii A15153 = experiment: M.I.C. by Tube Dilution, Pr. morganii A15153; type: cell-based; details: Morganella morganii, 10^-4 dilution, overnight at 37° C.
# Sal. enteritidis A9531 = experiment: M.I.C. by Tube Dilution, Sal. enteritidis A9531; type: cell-based; details: Salmonella enterica, 10^-4 dilution, overnight at 37° C.
# Ser. marcescens A20019 = experiment: M.I.C. by Tube Dilution, Ser. marcescens A20019; type: cell-based; details: Serratia marcescens, 10^-4 dilution, overnight at 37° C.
# Ps. aeruginosa A9843 = experiment: M.I.C. by Tube Dilution, Ps. aeruginosa A9843; type: cell-based; details: Pseudomonas aeruginosa, 10^-4 dilution, overnight at 37° C.
# S. aureus BX-1633 = experiment: Minimum curative dose in infected mice, S. aureus BX-1633; type: in vivo; details: Staphylococcus aureus, BX1633, sc; subcutaneous, mice infected with lethal dose of S. aureus BX-1633; read-out: CD50 (minimum curative dose for 50% of the mice)
# E coli Juhl = experiment: Minimum curative dose in infected mice, E coli Juhl; type: in vivo; details: Mus musculus, sc; subcutaneous, mice infected with lethal dose of E coli Juhl; read-out: CD50 (minimum curative dose for 50% of the mice)
# [2] = 0.1 M phosphate buffer (pH 7.0), 4 hr. at 25° C., UV-assay, read-out: Solubility, UV (UV-assay)
# [3] = 0.1 M phosphate buffer (pH 7.0), 4 hr. at 25° C., bioassay, read-out: Solubility, BA (bioassay)
# [4] = stirred at 25° C. for 4 hours in 0.1 M pH 7.0 phosphate buffer, assayed spectroscopically against its own standard, read-out: Solubility
# [5] = 0.1 M phosphate buffer (pH 7.0), 4 hr. at 25° C., UV-assay, 240 min
smiles,measurement,setting,value
"NCc1ccccc1CC(=O)NC1C(=O)N2C(C(=O)O)=C(CSc3ccc(O)nn3)CSC12 (centres unmarked) [BB-S150, reference compound]",solubility at 4 h,[1]; [2],4400 µg/mL
same,solubility at 4 h,[1]; [3],4400 µg/mL
same,solubility at 4 h,[1]; [4],4400 µg/mL
"NCc1ccccc1CC(=O)NC1C(=O)N2C(C(=O)O)=C(CSc3ccc4nnc(O)n4n3)CSC12 (centres unmarked) [BB-S207, reference compound]","Solubility, UV (UV-assay)",[1]; [5],3600 µg/mL
same,solubility at 4 h,[1]; [2],3900 µg/mL
same,solubility at 4 h,[1]; [3],4200 µg/mL
same,solubility at 4 h,[1]; [4],3600 µg/mL
"NCc1ccccc1CC(=O)NC1C(=O)N2C(C(=O)O)=C(CSc3ccc4nnnn4n3)CSC12 (centres unmarked) [BB-S226, reference compound]","Solubility, UV (UV-assay)",[1]; [5],2100 µg/mL and 3500 µg/mL and 2200 µg/mL
same,solubility at 4 h,[1]; [2],2500 µg/mL
same,solubility at 4 h,[1]; [3],3800 µg/mL
same,solubility at 4 h,[1]; [4],3500 µg/mL
"NCC1=C(CC(=O)NC2C(=O)N3C(C(=O)O)=C(CSc4ccc(O)nn4)CS[C@H]23)CCCC1 (stereo partly drawn) [Example 1, 7-[α-(2-aminomethyl-1-cyclohexenyl)acetamido]-3-(6-hydroxypyridazin-3-ylthiomethyl)-3-cephem-4-carboxylic acid]",solubility at 4 h,[1]; [2],16000 µg/mL
same,solubility at 4 h,[1]; [3],16800 µg/mL
same,solubility at 4 h,[1]; [4],16000 to 16800 µg/mL
"NCC1=C(CC(=O)NC2C(=O)N3C(C(=O)O)=C(CSc4ccc5nnnn5n4)CSC23)CCCC1 (stereo not drawn) [Example 2, 7-[α-(2-aminomethyl-1-cyclohexenyl)acetamido]-3-(pyradazino[2,3-d]tetrazol-6-ylthiomethyl)-3-cephem-4-carboxylic acid]",solubility at 4 h,[1]; [2],3000 µg/mL
same,solubility at 4 h,[1]; [3],3000 µg/mL
same,solubility at 4 h,[1]; [4],3000 µg/mL
"Cn1nnnc1SCC1=C(C(=O)O)N2C(=O)C(NC(=O)CC3=C(CN)CCCC3)[C@H]2SC1 (some centres unmarked) [Example 3, 7-[(2-aminomethyl-1-cyclohexen-1-yl)acetamido]-3-(1-methyltetrazol-5-ylthiomethyl)-3-cephem-4-carboxylic acid]","Solubility, UV (UV-assay)","[1]; 0.1 M phosphate buffer (pH 7.0), 4 hr. at 25° C., UV-assay, listed as BB-S336, 240 min",26000 µg/mL
same,"Solubility, BA (bioassay)","[1]; 0.1 M phosphate buffer (pH 7.0), 4 hr. at 25° C., bioassay, listed as BB-S336, 240 min",23000 µg/mL
same,solubility at 4 h,[1]; [2],24600 µg/mL
same,solubility at 4 h,[1]; [3],25600 µg/mL
same,solubility at 4 h,[1]; [4],23000 to 26000 µg/mL
same,MIC,"S. aureus Smith A9537; SMITHA9537, S. aureus Smith A9537 + 50% serum",0.8 to 1.6 µg/mL
same,MIC,"S. aureus Smith A9537; SMITHA9537, S. aureus Smith A9537, Nutrient Broth",0.2 to 0.4 µg/mL
same,MIC,S. aureus Russel,0.4 to 0.8 µg/mL
same,MIC,S. aureus BX1633 A9606,1.6 µg/mL
same,MIC,Str. pyogenes A9604,0.04 to 0.08 µg/mL
same,MIC,D. pneumoniae A9585,0.04 to 0.08 µg/mL
same,MIC,Mycobacterium 607,> 100 µg/mL
same,MIC,E. coli NIHJ,1.6 to 3.1 µg/mL
same,MIC,E. coli ATCC 8739,3.1 to 6.3 µg/mL
same,MIC,E. coli Juhl A15119,3.1 to 6.3 µg/mL
same,MIC,K. pneumoniae A9977,0.8 to 3.1 µg/mL
same,MIC,K. pneumoniae A15130,3.1 to 6.3 µg/mL
same,MIC,Pr. mirabilis A9900,100 µg/mL
same,MIC,Pr. morganii A15153,> 100 µg/mL
same,MIC,Sal. enteritidis A9531,1.6 to 3.1 µg/mL
same,MIC,Ser. marcescens A20019,> 100 µg/mL
same,MIC,Ps. aeruginosa A9843,> 100 µg/mL
same,ED50,S. aureus BX-1633,2.4 mg/kg
same,ED50,E coli Juhl,5.4 mg/kg
